{"source": "patent US20090062309A1", "about": "“Therapeutic compositions for the treatment of cardiovascular diseases and methods for use therefor” (priority 2007, published 2009)", "key": {"[1]": {"tested_on": "subjects with CHD having decreased RBC K content", "type": "in vivo, human", "method": "Subjects were evaluated by clinical angina (CCS angina Class II-IV), dyspnea, or arrhythmia.\nExclusion Criteria: Evidence of acute coronary syndrome, AMI, stroke or cardiac arrhythmias; NYHA class III-IV of heart failure, hyperkalemia. Informed consent was obtained in all. Other non CHD causes of chest pain, dyspnea, and arrhythmia had been ruled out.\nIn addition to that, a single dose of calcium gluconolactate (1 g/daily) was given to all subjects having plasma ionized ICa^2+ ≦1.1 mmol/L, while other Laboratory correction and drug assessment were conducted across the first 3-month period (Table 1) Safety control (ECG, Ion Transport Laboratory, BIA, Non-Invasive Hemodynamic) was obtained at 1, 3 and 6 months and 1 year. Clinical control was obtained weekly in the first month or as needed for physician or patient symptoms; thereafter a 3, 6 and 12 months.\nThe subjects were taken off any drug that might impair RBC transport, such as digitalis, β-blockers, or NSAID's, in subjects with RBC K^+ ≦90.2 mmol/L cell. Oral calcium gluconolactate (1 g/daily) was administered in all subjects with plasma ionized calcium ≦1.1 mmol/L. Subjects had correction of other plasma electrolyte abnormalities. The subjects were taken off any drug that may affect ventricular repolarization, as digoxin, calcium channel blockers (CCB), diuretics, β-blockers, or the like. […] Anti-aggregants or aspirin in subjects free of angina were discontinued after the 3rd month of treatment.\nAll subjects underwent: a) Serial ECG for LVH by Cornell or Sokolow-Lyon Criteria (QRS duration times Cornell voltage: R aVL+SV3, with 6 mm [added in women >2440 mm×ms], or Sokolow-Lyon voltage: [SV1+RV5/V6] >38 mm; along with LV strain pattern (classical ST-segment depressed, with inverted T-waves), or LVH voltage criteria with mild LV strain pattern (isoelectric, biphasic or non-symmetrical negative T-waves, without ST-segment depression), and ECG criteria for infarction and/or ischemia (Q-waves from previous AMI, decreased R-wave height, non-progressive R-wave voltages in precordial leads, ST-segment elevation […] often referred as injury current, ST-segment depression ≧[…] often downsloping from the J point, rectification of the ST segment, and isoelectric, biphasic, negative or inverted T-wave), intraventricular conduction disturbance, and arrhythmias); b) Non-invasive hemodynamic study (DP200M) for cardiac parameters (LV Ejection Time (LVET), LV dP/dT (LV delta pressure-time), Cardiac output and index (CO, Cl), Stroke Volume (SV), Pulse Wave Analysis (PWA) of Central Aortic Blood Pressure (BP), Aortic Systolic (SBP), Diastolic (DBP) and mean (m) BP, Aortic augmentation index; inflection point and reflected wave analysis, Systemic Vascular Resistance and Compliance (SVR/SVC), and Brachial Artery Distensibility (BAD), Brachial Artery Compliance (BAC); c) Ion Transport Studies for RBC (K^+, Na^+) plasma (K^+, Na^+, Cl^−, ICa^2+, Mg^2+), and 12-hours night urinary volume (K^+, Na^+, Cl^−, pH), d) Bio-Impedance Analysis (BIA, Quantum X, RJL Systems, MI, USA) for Total body Potassium, Total body water/Extracellular Water, Fat Mass (FM) and Fat-Free Mass (FFM) and e) Echocardiography was obtained at entry, 6 and 12 months periods."}, "[2]": {"tested_on": "subjects with stable chronic angina", "method": "A double blind placebo-controlled, randomized trial was conducted in 25 subjects with stable chronic angina. […] All of the subjects were evaluated before and after the double-blind trial, thereby measuring a subject's angina clinical score (CCS Angina Class), ECG, and exercise tolerance as assessed by the Duke Treadmill Score (DTS). Methods for using the DTS with patients in need of coronary intervention and its acceptance as an accurate predictor of cardiac morbidity and mortality in CHD and CAD patients has been well established. See for example Azeem T., et al., Int J. Clin. Pract. (2001), 55(1):10-13. […] Participants' clinical and cardiac parameters were evaluated either monthly, quarterly, half yearly and yearly."}, "cell K uptake by RBC": {"tested_on": "cell K uptake by RBC", "assay": "long-term assay from our laboratory: cell K uptake by RBC (results not shown)"}, "[3]": {"conditions": "cited from earlier work"}, "[4]": {"conditions": "1-month trial, Amiloride 5 mg/d, N=14"}, "[5]": {"conditions": "1-month, Amiloride 5 mg/d, N=14"}}}
{"molecule": "Cl.NC(N)=NC(=O)c1nc(Cl)c(N)nc1N.O.O", "note": "[Amiloride, 3,5-diamino-6-chloro-N-(diaminomethylene) pyrazinecarboxamide monohydrochloride, dihydrate]", "values": [{"measurement": "RBC K", "setting": "[1]; 1st month, baseline 84.5±4, p<0.001", "value": "93.5±4", "unit": "mmol/L cell"}, {"measurement": "cardiovascular events or death", "setting": "[1]; 2 years of follow-up", "value": 0, "unit": "%"}, {"measurement": "RBC K+", "setting": "[1]; 3rd month", "value": "remained improved"}, {"measurement": "subjects with improved ST-segment depression or elevation and isoelectric, biphasic or inverted T-wave", "setting": "[1]; 3rd month, CHD subjects, no nitrates, lower anti-aggregants or aspirin", "value": 74, "unit": "%"}, {"measurement": "LV Strain pattern", "setting": "[1]; 3rd month, hypertensives", "value": "improved or almost reversed"}, {"measurement": "LVH voltage criteria", "setting": "[1]; 3rd month, hypertensives, p<0.001", "value": "significantly decreased"}, {"measurement": "normotensive subjects with marked improved ST-segment depression or elevation and inverted T-waves", "setting": "[1]; 6th month, 3 out 4", "value": 75, "unit": "%"}, {"measurement": "hypertensives subjects with improved LV Strain pattern", "setting": "[1]; 6th month, about 4 out of 5", "value": "~80", "unit": "%"}, {"measurement": "ECG-LVH voltage, Sokolow-Lyon criteria", "setting": "[1]; 6th month, baseline 29.3±5.2, p=0.001", "value": "25.1±3.2", "unit": "mm"}, {"measurement": "ECG-LVH voltage, Cornell", "setting": "[1]; 6th month, baseline 2577±509, p<0.02", "value": "2353±254", "unit": "mm×ms"}, {"measurement": "subjects with previous inferior infarction whose ECGs remained unchanged for Q-waves", "setting": "[1]; 6th month, these subjects were free of angina", "value": 15, "unit": "%"}, {"measurement": "QTc interval", "setting": "[1]; human, in vivo", "value": "prolonged"}, {"measurement": "hyperkalemia", "setting": "[1]; human, in vivo", "value": "never observed"}, {"measurement": "SVC (Systemic Vascular Compliance)", "setting": "[1]; hypertensives, 1st month, baseline 0.92±0.16, p<0.003", "value": "1.22±0.21", "unit": "ml/mmHg"}, {"measurement": "LV dP/dT", "setting": "[1]; hypertensives, 1st month, baseline 1757±313, p<0.001", "value": "1302±276", "unit": "mmHg/s"}, {"measurement": "BA Compliance", "setting": "[1]; hypertensives, 1st month, baseline printed 0.57±0.021, p<0.005", "value": "0.069±0.02", "unit": "ml/mmHg"}, {"measurement": "angina, single subject FIG. 7B", "setting": "[1]; normotensive diabetic, after 5 months of Amiloride and calcium treatment", "value": "angina reversed"}, {"measurement": "ECG change, single subject FIG. 3C", "setting": "[1]; normotensive person, bypass surgery, infarction, instable angina, 6-months Amiloride and calcium", "value": "reversion of T-wave alterations"}, {"measurement": "angina, single subject FIG. 7A", "setting": "[1]; person, angina, diabetes, hypertension, after 4 months of Amiloride treatment", "value": "the angina reversed"}, {"measurement": "clinical change, single subject FIG. 5B", "setting": "[1]; person, hypertension, LVH, 3-months Amiloride, antihypertensive and vasodilators drugs", "value": "reversion of clinical symptoms of exertional angina, and palpitations"}, {"measurement": "clinical change, single subject FIG. 4B", "setting": "[1]; person, hypertension, infarction, heart failure, 2 months after addition of Amiloride and calcium gluconolactate", "value": "clinical improvement of angina (3 weeks), heart failure and hypertension"}, {"measurement": "angina, single subject FIG. 6B", "setting": "[1]; person, hypertension, post-infarction angina, Amiloride treatment", "value": "rapid reversion of angina (7 days)"}, {"measurement": "ECG T-waves, single subject FIG. 4B", "setting": "[1]; person, 2 months after addition of Amiloride and calcium gluconolactate", "value": "T-waves were improved"}, {"measurement": "ECG T-wave, single subject FIG. 6B", "setting": "[1]; person, after 5-months of Amiloride treatment", "value": "reversion of T-wave inversion"}, {"measurement": "free of angina and symptoms of heart failure", "setting": "[1]; within 1st month, Amiloride 5 mg/daily (calcium gluconolactate 1 g/daily if plasma ICa2+ ≦1.1 mmol/L), 75 CHD subjects", "value": "all subjects were free of angina and symptoms of heart failure"}, {"measurement": "Double-Product", "setting": "[2]; [4]", "value": "25700 ± 4633"}, {"measurement": "Peak Exercise BP, diastolic", "setting": "[2]; [4]", "value": "94 ± 10"}, {"measurement": "Peak Exercise BP, systolic", "setting": "[2]; [4]", "value": "177 ± 19"}, {"measurement": "Peak Exercise HR", "setting": "[2]; [4]", "value": "144 ± 19"}, {"measurement": "Exercise Time", "setting": "[2]; 1-month trial, Amiloride 5 mg/d, N=14, P<0.05 vs placebo", "value": "7.95 ± 2.8", "unit": "min"}, {"measurement": "High Risk Value: Subjects (%)", "setting": "[2]; [5]", "value": 35.7, "unit": "%"}, {"measurement": "Low Risk Value: Subjects (%)", "setting": "[2]; [5]", "value": 64.3, "unit": "%"}, {"measurement": "subjects with improved ST-T alterations of ischemia", "setting": "[2]; 4 weeks, Amiloride 5 mg daily, 9 out of 14", "value": 64, "unit": "%"}, {"measurement": "subjects free of angina", "setting": "[2]; 4 weeks, Amiloride 5 mg daily, Twelve out of 14 subjects", "value": 71, "unit": "%"}, {"measurement": "adverse episodes of cardiac arrhythmia", "setting": "[2]; 4 weeks, Amiloride 5 mg daily, exercise treadmill test", "value": "without any adverse episodes of cardiac arrhythmia"}, {"measurement": "1-Month DTS (Duke Treadmill Score)", "setting": "[2]; Amiloride 5 mg/d, N=14, Baseline DTS −2.28 ± 7.0", "value": "7.90 ± 4.2"}, {"measurement": "High Risk Value (DTS), changes from baseline to 1-month", "setting": "[2]; Amiloride 5 mg/d, high risk subjects", "value": "*−3 ± −2.6"}, {"measurement": "Low Risk Value (DTS), changes from baseline to 1-month", "setting": "[2]; Amiloride 5 mg/d, low risk subjects", "value": "*8.6 ± 2.3"}, {"measurement": "hereditable defect in cell K uptake by RBC", "setting": "cell K uptake by RBC", "value": "reverses a hereditable defect in cell K uptake by RBC"}, {"measurement": "hyperkalemia as secondary effect", "setting": "[3]; as disclosed in various medical textbooks", "value": "hyperkalemia is a common secondary effect"}, {"measurement": "hyperkalemia", "setting": "[3]; intravenous doses of Amiloride (1 mg/Kg), subjects with chronic kidney disease, Levy Y. et al. 2008", "value": "absence of hyperkalemia"}, {"measurement": "excretion", "setting": "[3]; upon ingestion, humans", "value": "excreted from the kidneys unchanged"}]}
